For one molecule, IC50 results are on record in US7176224B2, “Oxazolyl-aryloxyacetic acid derivatives and their use as PPAR agonists” (Eli Lilly and Company, priority 2000, dated 2007).

In one test the target is T1, huPPARγ (Homo sapiens, UniProt P37231).
T1 sequence (P37231 1-505): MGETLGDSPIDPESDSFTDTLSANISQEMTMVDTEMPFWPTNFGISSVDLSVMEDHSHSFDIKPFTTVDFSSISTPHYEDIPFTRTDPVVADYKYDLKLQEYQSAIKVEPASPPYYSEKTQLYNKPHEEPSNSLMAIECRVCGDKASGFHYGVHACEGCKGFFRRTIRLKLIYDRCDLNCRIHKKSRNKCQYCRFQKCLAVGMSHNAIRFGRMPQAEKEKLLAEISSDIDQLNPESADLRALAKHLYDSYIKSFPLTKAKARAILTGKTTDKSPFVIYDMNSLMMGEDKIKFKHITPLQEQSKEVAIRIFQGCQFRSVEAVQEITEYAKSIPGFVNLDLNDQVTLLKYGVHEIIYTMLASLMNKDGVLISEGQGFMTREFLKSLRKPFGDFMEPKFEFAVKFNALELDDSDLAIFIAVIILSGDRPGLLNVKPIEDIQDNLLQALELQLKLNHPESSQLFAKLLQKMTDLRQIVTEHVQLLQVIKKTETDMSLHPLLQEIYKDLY
T1 sequence (P19793 1-462 partner): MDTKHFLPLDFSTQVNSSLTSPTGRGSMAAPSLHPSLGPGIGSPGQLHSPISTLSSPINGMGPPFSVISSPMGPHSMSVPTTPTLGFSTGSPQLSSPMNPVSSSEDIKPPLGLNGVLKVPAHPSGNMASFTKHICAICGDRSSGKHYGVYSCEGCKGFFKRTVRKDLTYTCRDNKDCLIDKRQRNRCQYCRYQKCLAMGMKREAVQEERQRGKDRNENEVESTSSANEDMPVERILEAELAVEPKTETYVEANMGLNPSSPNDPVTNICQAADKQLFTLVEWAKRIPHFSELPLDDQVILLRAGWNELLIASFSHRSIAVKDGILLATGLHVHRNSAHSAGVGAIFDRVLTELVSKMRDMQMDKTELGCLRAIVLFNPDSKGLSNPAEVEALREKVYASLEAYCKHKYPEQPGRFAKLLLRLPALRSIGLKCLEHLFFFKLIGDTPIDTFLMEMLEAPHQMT
The experiment in a line: DNA-dependent binding (ABCD binding), SPA, radioligand displacement. To be noted: tritium-labeled PPARγ agonist radioligand. As for the experimental part: (§1) […] binding (ABCD binding) was carried out using SPA technology with PPAR receptors. Tritium-labeled PPARα and PPARγ agonists were used as radioligands for generating displacement curves and IC50 values with compounds of the invention. Cotransfection assays were carried out in CV-1 cells. The reporter plasmid contained an acylCoA oxidase (AOX) PPRE and TK promoter upstream of the luciferase reporter cDNA. Appropriate PPARs and RXRα were constitutively expressed using plasmids containing the CMV promoter. […] In order to eliminate such interference, a GAL4 chimeric system was used in which the DNA binding domain of the transfected PPAR was replaced by that of GAL4, and the GAL4 response element was utilized in place of the AOX PPRE. Cotransfection efficacy was determined relative to PPARα agonist and […] reference molecules. Efficacies were determined by computer fit to a concentration-response curve, or in some cases at a single high concentration of agonist (10 μM). For binding or cotransfection studies with receptors other than PPARs, similar assays were carried out using appropriate ligands, receptors, reporter constructs, etc., for that particular receptor.
(§2) These studies were carried out to evaluate the ability of compounds of the invention to bind to and/or activate various nuclear transcription factors, particularly huPPARα (“hu” indicates “human”) and huPPARγ. These studies provide in vitro data concerning efficacy and selectivity of compounds of the invention. Furthermore, binding and cotransfection data for compounds of the invention were compared with corresponding data for marketed compounds that act on either huPPARα or huPPARγ.
A general note: In a radioligand displacement assay an active substance lowers the binding of a labelled ligand.

The target of the next test is T2, huPPARα (Homo sapiens, UniProt Q07869).
T2 sequence (Q07869 1-468): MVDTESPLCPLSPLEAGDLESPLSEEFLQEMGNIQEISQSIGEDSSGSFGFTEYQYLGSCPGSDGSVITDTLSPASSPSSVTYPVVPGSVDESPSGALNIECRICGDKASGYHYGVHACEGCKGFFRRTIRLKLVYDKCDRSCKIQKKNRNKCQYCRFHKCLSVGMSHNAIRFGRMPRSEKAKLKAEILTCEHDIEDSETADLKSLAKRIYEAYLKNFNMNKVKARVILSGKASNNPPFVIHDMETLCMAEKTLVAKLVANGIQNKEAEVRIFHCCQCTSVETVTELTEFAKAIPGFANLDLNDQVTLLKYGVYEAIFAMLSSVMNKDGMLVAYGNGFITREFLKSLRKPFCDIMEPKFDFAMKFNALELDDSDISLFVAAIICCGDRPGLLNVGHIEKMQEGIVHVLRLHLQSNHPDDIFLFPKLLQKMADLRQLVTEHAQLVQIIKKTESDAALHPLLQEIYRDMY
T2 sequence (P19793 1-462 partner): T1 sequence (P19793 1-462 partner)
Described as above. The conditions noted are these: tritium-labeled PPARα agonist radioligand. As for the experimental part:
as §1, §2

For orientation: IC50 means the concentration that inhibits the measured activity by half. As to `Cc1oc(-c2cccc(-c3ccc(F)cc3)c2)nc1CCOc1ccc(CC(C)(Oc2ccccc2)C(=O)O)cc1` (centres unmarked) [Example 4, 3-(4-{2-[2-(4′-Fluorobiphenyl-3-yl)-5-methyloxazol-4-yl]ethoxy}phenyl)-2-methyl-2-phenoxypropionic acid], the values for the IC50 on huPPARγ and on huPPARα were 41 nM and 147 nM, respectively.
